From ChEMBL document CHEMBL6096728, “Simultaneous Induction of Immunogenic Pyroptosis and PD-L1 Downregulation by One Single Photosensitizer for Synergistic Cancer Photoimmunotherapy” (J Med Chem, 2025)
Calls of active or inactive are those of the source. The rule behind the calls is not given here.

Columns and labels:
4T1 [1] = test: Induction of cell death in mouse 4T1 cells assessed as decrease in green fluorescence at 0.5 uM incubated for 24 hrs followed by light irradiation of 20 mW.cm/2 at 400 to 700nm for 10 mins by Calcein-AM/PI staining based analysis; format: functional
[2] = Phototoxicity against mouse 4T1 cells preincubated for 24 hrs followed by light irradiation of 20 mW.cm/2 at 400 to 700nm for 10 mins under hypoxia condition by CCK-8 method; format: functional, cell-based; details: 4T1, light or radiation study
MDA-MB-231 [3] = test: Induction of cell death in human MDA-MB-231 cells assessed as increase in red fluorescence at 0.5 uM incubated for 24 hrs followed by light irradiation of 20 mW.cm/2 at 400 to 700nm for 10 mins by Calcein-AM/PI staining based analysis; format: functional
4T1 [4] = test: Induction of cell death in mouse 4T1 cells assessed as increase in red fluorescence at 0.5 uM incubated for 24 hrs followed by light irradiation of 20 mW.cm/2 at 400 to 700nm for 10 mins by Calcein-AM/PI staining based analysis; format: functional
MDA-MB-231 [5] = test: Induction of cell death in human MDA-MB-231 cells assessed as decrease in green fluorescence at 0.5 uM incubated for 24 hrs followed by light irradiation of 20 mW.cm/2 at 400 to 700nm for 10 mins by Calcein-AM/PI staining based analysis; format: functional
[6] = Phototoxicity against human MDA-MB-231 cells preincubated for 24 hrs followed by light irradiation of 20 mW.cm/2 at 400 to 700nm for 10 mins under hypoxia condition by CCK-8 method; format: functional, cell-based; details: MDA-MB-231, light or radiation study

Q: Which Activity (4T1 [1]) does the source give for `CCN(CC)c1ccc2nc3c4ccccc4c(=O)cc-3oc2c1` [NILE RED] here?
A: inactive

Q: And the IC50 [2]?
A: > 10 µM

Q: And the Activity (MDA-MB-231 [3])?
A: inactive

Q: And the Activity (4T1 [4])?
A: inactive

Q: And the Activity (MDA-MB-231 [5])?
A: inactive

Q: What about the IC50 [6] of the same compound?
A: > 10 µM
